Measured values: ChEMBL document CHEMBL2062412, “Structure and bioassay of triterpenoids and steroids isolated from Sinocalamus affinis” (J Nat Prod, 2012)

Molecular target: T1, Tyrosine-protein phosphatase non-receptor type 1 (Homo sapiens, UniProt P18031)
T1 sequence (P18031 whole entry): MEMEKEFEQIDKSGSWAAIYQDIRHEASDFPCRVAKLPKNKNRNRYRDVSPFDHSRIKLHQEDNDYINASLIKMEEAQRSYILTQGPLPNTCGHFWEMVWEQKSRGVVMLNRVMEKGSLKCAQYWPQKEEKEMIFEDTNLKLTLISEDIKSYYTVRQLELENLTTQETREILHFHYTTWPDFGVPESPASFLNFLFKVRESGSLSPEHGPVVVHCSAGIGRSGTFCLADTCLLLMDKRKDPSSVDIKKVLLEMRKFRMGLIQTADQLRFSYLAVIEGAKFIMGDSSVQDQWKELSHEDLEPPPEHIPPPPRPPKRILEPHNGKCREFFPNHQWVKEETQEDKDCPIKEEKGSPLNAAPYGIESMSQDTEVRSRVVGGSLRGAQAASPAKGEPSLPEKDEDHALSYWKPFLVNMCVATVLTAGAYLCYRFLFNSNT
Experiment: Inhibition of GST-tagged human recombinant PTP1B using para-nitrophenyl phosphate as substrate by spectrophotometric analysis

Compound | IC50
CC(C)[C@@H]1[C@H](O)[C@@H](O)[C@H]2[C@@]1(CO)CC[C@@]1(C)[C@H]3C(=CC[C@]21C)C1=C(C[C@@H]3O)C(C)(C)[C@@H](O)CC1 | 6.8 µM
CC(C)[C@@H]1CC(=O)[C@H]2[C@@]1(CO)CC[C@@]1(C)[C@H]3C(=CC[C@]21C)C1=C(C[C@@H]3O)C(C)(C)[C@@H](O)CC1 | 6.8 µM
CC(C)[C@@H]1C[C@@H](O)[C@H]2[C@@]1(CO)CC[C@@]1(C)[C@H]3C(=CC[C@]21C)C1=CC[C@H](O)C(C)(C)[C@H]1C[C@@H]3O | 6.8 µM

More lines, now with the values ahead:

IC50 | Compound
6.8 µM | CC(C)[C@@H]1C[C@@H](O)[C@H]2[C@@]1(CO)CC[C@@]1(C)[C@H]3C(=CC[C@]21C)C1=C(C[C@@H]3O)C(C)(C)[C@@H](O)CC1
6.8 µM | CC(C)[C@@H]1C[C@@H](O)[C@H]2[C@@]1(CO)CC[C@@]1(C)[C@H]3C(=CC[C@]21C)C1=C(C[C@@H]3O)[C@](C)(CO)[C@@H](O)CC1
